Assay results from article PMC8563752, “An oxidative metabolic pathway of 4-deoxy-L-erythro-5-hexoseulose uronic acid (DEHU) from alginate in an alginate-assimilating bacterium” (Communications Biology, 2021).
Each block holds one molecule with its values, some of them ahead of it.

How the values were obtained:
recFlRed [1] = test system: T1, recFlRed; experiment: NADH formation by absorbance at […] nm, Michaelis-Menten fit; assay type: biochemical, Flavobacterium sp. UMI-01; settings: oxidase direction; 5 mM DEHU, 0.15 M KCl, 10 mM sodium phosphate pH 7.4, 20 °C
T1 construct: gene FlRed; native 27 kDa on SDS-PAGE, about 102 kDa on gel filtration, tetramer

recFlDeg [2] = biological target: T2, recFlDeg (Flavobacterium sp. UMI-01, UniProt A0A6S6ASF6); experiment: NADH formation at […] nm; assay type: biochemical; settings: […] alpha-KGSA, […] potassium phosphate pH […] KCl, […] MgCl2, […] °C
T2 construct: full length, His-tag, E. coli BL21(DE3); calculated mass 57,142 Da; Glu251 and Cys288 conserved
T2 sequence (A0A6S6ASF6 1-515): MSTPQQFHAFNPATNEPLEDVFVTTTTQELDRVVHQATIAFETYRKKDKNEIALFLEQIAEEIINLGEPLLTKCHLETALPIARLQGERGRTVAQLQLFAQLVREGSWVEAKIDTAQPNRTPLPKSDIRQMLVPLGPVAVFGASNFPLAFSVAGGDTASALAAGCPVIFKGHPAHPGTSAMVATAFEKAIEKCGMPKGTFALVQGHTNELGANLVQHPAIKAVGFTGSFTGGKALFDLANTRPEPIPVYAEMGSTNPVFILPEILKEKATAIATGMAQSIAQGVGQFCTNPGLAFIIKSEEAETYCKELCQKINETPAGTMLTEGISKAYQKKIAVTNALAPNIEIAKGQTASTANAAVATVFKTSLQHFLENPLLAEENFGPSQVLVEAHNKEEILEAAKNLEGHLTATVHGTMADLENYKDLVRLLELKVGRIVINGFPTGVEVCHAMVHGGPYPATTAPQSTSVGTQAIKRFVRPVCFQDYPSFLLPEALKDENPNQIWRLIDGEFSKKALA

recFlRed [3] = test system: T1, recFlRed; experiment: NADH consumption by absorbance at […] nm, Michaelis-Menten fit; assay type: biochemical, Flavobacterium sp. UMI-01; settings: reductase direction; 0.2 mM NADH, 0.15 M KCl, 10 mM sodium phosphate pH 7.4, 20 °C
recFlRed [4] = test system: T1, recFlRed; experiment: coenzyme consumption by absorbance at […] nm, Michaelis-Menten fit; assay type: biochemical, Flavobacterium sp. UMI-01; settings: reductase direction; 5 mM DEHU, 0.15 M KCl, 10 mM sodium phosphate pH 7.4, 20 °C
recFlDet = biological target: T3, recFlDet (Flavobacterium sp. UMI-01, UniProt A0A6S6B272); experiment: TBA method (decrease at […] nm), TLC, ESI-MS of product; assay type: biochemical; settings: […] potassium phosphate pH […] KCl, […] MgCl2, […] °C
T3 construct: full length 237 residues (25,697 Da), C-terminal His-tag (27,394 Da), E. coli BL21(DE3); native tetra- or pentamer; N-terminus […]
T3 sequence (A0A6S6B272 1-237): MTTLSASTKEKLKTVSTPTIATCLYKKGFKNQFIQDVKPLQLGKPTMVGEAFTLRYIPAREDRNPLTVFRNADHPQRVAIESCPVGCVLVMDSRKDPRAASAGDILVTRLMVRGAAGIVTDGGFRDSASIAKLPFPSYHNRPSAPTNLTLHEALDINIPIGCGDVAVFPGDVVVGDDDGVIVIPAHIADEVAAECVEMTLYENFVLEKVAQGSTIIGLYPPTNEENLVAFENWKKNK

recFlRed [5] = test system: T1, recFlRed; experiment: NADPH formation by absorbance at […] nm, Michaelis-Menten fit; assay type: biochemical, Flavobacterium sp. UMI-01; settings: oxidase direction; 5 mM DEHU, 0.15 M KCl, 10 mM sodium phosphate pH 7.4, 20 °C
recFlDeg [6] = biological target: T2, recFlDeg; experiment: NADH formation at […] nm; TLC, ESI-MS and NMR of product; assay type: biochemical; settings: NAD+, […] potassium phosphate pH […] KCl, […] MgCl2, […] °C

- Km (recFlRed [1]): 98 ± 10 µM
- NADH formation at 340 nm (recFlDeg [2]): recFlDeg preferred NAD^+ to NADP^+
SMILES: NC(=O)c1ccc[n+]([C@@H]2O[C@H](COP(=O)(O)OP(=O)(O)OC[C@H]3O[C@@H](n4cnc5c(N)ncnc54)[C@H](O)[C@@H]3O)[C@@H](O)[C@H]2O)c1 [NAD^+]

- Km (recFlRed [3]): 2600 ± 100 µM
SMILES: O=C[C@@H](O)[C@@H](O)CC(=O)C(=O)O [DEHU]

- Km (recFlRed [4]): 37 ± 2 µM
SMILES: NC(=O)C1=CN([C@@H]2O[C@H](COP(=O)(O)OP(=O)(O)OC[C@H]3O[C@@H](n4cnc5c(N)ncnc54)[C@H](O)[C@@H]3O)[C@@H](O)[C@H]2O)C=CC1 [NADH]

SMILES: O=C(O)C(=O)C[C@H](O)[C@H](O)C(=O)O [KDGR]
- TBA method (decrease at 548 nm), TLC, ESI-MS of product (recFlDet): KDGR was determined to be the sole α-keto acid recognized by recFlDet

- Km (recFlRed [5]): 1400 ± 200 µM
SMILES: NC(=O)c1ccc[n+]([C@@H]2O[C@H](COP(=O)(O)OP(=O)(O)OC[C@H]3O[C@@H](n4cnc5c(N)ncnc54)[C@H](OP(=O)(O)O)[C@@H]3O)[C@@H](O)[C@H]2O)c1 [NADP^+]

- Km (recFlRed [4]): 980 ± 100 µM
SMILES: NC(=O)C1=CN([C@@H]2O[C@H](COP(=O)(O)OP(=O)(O)OC[C@H]3O[C@@H](n4cnc5c(N)ncnc54)[C@H](OP(=O)(O)O)[C@@H]3O)[C@@H](O)[C@H]2O)C=CC1 [NADPH]

SMILES: O=CCCC(=O)C(=O)O [α-KGSA]
- NADH formation at 340 nm; TLC, ESI-MS and NMR of product (recFlDeg [6]): FlDeg is the enzyme catalyzing the oxidation of the aldehyde group of α-KGSA
